Drawing on ChEMBL document CHEMBL3046694, “3D QSAR STUDIES OF INHIBITORS OF EPIDERMAL GROWTH FACTOR RECEPTOR [EGFR] USING CoMFA AND GFA METHODOLOGIES” (Med Chem Res, 2004), this text covers IC50 for 15 molecules.

SMILES strings stand for the structures.

The target in the experiment is Epidermal growth factor receptor (Homo sapiens, UniProt P00533). In words: Inhibition of EGFR (unknown origin).
Sequence of Epidermal growth factor receptor (P00533 whole entry): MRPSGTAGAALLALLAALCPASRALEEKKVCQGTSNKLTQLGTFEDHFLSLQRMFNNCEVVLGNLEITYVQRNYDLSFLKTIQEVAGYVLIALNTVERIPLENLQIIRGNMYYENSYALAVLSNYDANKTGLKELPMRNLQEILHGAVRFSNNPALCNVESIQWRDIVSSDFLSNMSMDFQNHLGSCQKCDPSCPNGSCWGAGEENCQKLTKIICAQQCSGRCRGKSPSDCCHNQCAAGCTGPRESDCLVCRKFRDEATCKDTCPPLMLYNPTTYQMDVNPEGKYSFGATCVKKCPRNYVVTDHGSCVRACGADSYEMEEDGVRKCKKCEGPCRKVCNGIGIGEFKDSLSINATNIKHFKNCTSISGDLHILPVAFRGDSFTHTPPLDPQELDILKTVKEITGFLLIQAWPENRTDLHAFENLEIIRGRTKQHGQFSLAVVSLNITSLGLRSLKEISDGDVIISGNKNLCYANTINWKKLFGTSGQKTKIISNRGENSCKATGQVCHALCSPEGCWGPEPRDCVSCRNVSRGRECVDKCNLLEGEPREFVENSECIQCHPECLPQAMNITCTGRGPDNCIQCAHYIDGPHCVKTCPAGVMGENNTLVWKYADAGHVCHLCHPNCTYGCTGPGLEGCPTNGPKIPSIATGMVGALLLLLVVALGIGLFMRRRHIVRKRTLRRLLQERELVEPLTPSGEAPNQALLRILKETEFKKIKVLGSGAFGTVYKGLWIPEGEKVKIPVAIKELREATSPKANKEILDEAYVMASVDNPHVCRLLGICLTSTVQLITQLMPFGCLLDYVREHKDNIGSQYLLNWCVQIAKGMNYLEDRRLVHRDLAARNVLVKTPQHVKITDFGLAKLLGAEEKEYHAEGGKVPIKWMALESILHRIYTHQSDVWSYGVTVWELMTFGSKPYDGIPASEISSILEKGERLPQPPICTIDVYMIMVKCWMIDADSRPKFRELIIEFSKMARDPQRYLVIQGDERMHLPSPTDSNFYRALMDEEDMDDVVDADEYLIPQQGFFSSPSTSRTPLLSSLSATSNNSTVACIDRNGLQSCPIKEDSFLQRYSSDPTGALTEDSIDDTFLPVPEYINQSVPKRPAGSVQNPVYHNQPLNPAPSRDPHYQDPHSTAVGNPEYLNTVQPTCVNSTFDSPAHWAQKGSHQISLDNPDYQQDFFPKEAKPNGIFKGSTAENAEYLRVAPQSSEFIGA
Broadly, the IC50 is the concentration that inhibits the measured activity by half. High values mean weaker potency in that assay, low ones greater potency in that assay. Take `COC[C@@H]1CCCN1CC#CC(=O)Nc1ccc2ncc(C#N)c(Nc3cccc(Br)c3)c2c1`: the IC50 stood at 0.15 µM.

Consider `N#Cc1cnc2ccc(NC(=O)C#CCN3CCSCC3)cc2c1Nc1cccc(Br)c1`, for which the midpoint of inhibition, the IC50, lay at 0.55 µM.

On to `CCCNCC#CC(=O)Nc1ccc2ncc(C#N)c(Nc3cccc(Br)c3)c2c1`, for which inhibition was half-maximal at 0.13 µM (IC50).

As for `CC#CC(=O)Nc1cc2c(Nc3cccc(Br)c3)c(C#N)cnc2cc1OC`, the IC50 amounted to 0.19 µM.

Regarding `CN(C)C/C=C/C(=O)Nc1ccc2ncc(C#N)c(Nc3cccc(Br)c3)c2c1`, it took 0.31 µM to reach half-maximal inhibition (IC50).

For the molecule `COCC#CC(=O)Nc1ccc2ncc(C#N)c(Nc3cccc(Br)c3)c2c1`, half-maximal inhibition (IC50) required 0.96 µM. This IC50 lies about 3.1-fold higher than the previous one.

`C=CC(=O)Nc1ccc2ncc(C#N)c(Nc3cccc(Br)c3)c2c1`: it took 0.59 µM to reach half-maximal inhibition (IC50).

In the case of `CN(C)C/C=C/C(=O)Nc1ccc2ncc(C#N)c(Nc3ccc(F)c(Cl)c3)c2c1`, the IC50 came out at 0.65 µM.

Regarding `COc1cc2ncc(C#N)c(Nc3cccc(Br)c3)c2cc1NC(=O)C#CCN(C)C`, half-maximal inhibition (IC50) required 0.09 µM. This IC50 is about 7.2-fold lower than that of the molecule before.

`C=CC(=O)Nc1cc2c(Nc3cccc(Br)c3)c(C#N)cnc2cc1OC` gave an IC50 of 0.81 µM.

With `COCCOCC#CC(=O)Nc1ccc2ncc(C#N)c(Nc3cccc(Br)c3)c2c1`, the IC50 amounted to 0.93 µM.

For the molecule `CC#CC(=O)Nc1ccc2ncc(C#N)c(Nc3cccc(Br)c3)c2c1`, the concentration for half-maximal inhibition (IC50) came out at 0.94 µM.

`COc1cc2ncc(C#N)c(Nc3cccc(Br)c3)c2cc1NC(=O)/C=C/CN(C)C` came in with an IC50 of 0.79 µM.

Take `C=C(CN(C)C)C(=O)Nc1cc2c(Nc3ccc(F)c(Cl)c3)c(C#N)cnc2cc1OCC`: the IC50 is 0.56 µM.

Molecule `COCC#CC(=O)Nc1cc2c(Nc3cccc(Br)c3)c(C#N)cnc2cc1OC` had an IC50 of 0.791 µM.
